Results published in patent publication US20230284627A1, “ANTIMICROBIAL COMPOSITIONS AND METHODS OF USE AND FOR MAKING SAME” (MIG USA, LLC, priority 2020, published 2023).

Tested on: Escherichia coli ATCC-25922, Klebsiella pneumonia ATCC-4352, Canadida albicans ATCC-10231, Pseudomonas aeruginosa ATCC-9027, Staphylococcus aureus ATCC-6538
Experiment: Lawn-spray assay of AM635 disinfectant spray in SDS (Example 5)
Assay type: cell-based
Settings: portions of the untreated area were also clear of bacterial growth
Method: The efficacy of 0.5-2% SDS solutions (in DiH2O)+0.1-10% Silver 1-Methyl imidazole were tested by performing a lawn-spray assay. The Silver 1-Methylimidazole Complex 635 (AM635) disinfectant sprays in SDS were prepared as described in Example 4. Briefly, a lawn of bacteria/yeast from a newly grown broth culture were inoculated onto their preferred agar media by dipping a swab into each broth, fully wetting the swab end, then swiping the swab back-and-forth from the top to the bottom of the plate, then turning the plate for a ¼ turn and re-streaking from top to bottom again. This technique ensures for total coverage of the inoculating bacteria/yeast across the face of the agar media. The dish was then opened and a paper towel placed over the top of the plate to cover only half of the surface while not touching the agar surface, so that the other half is exposed to the air. This exposed half was then treated with 2-pumps from a spray bottle containing the AM635 in SDS composition, ensuring that the exposed half of the plate was saturated by the test product. Each plate was treated using the same 2-pump criteria. All plates were then incubated “agar-down” overnight at 37° C. to allow the bacteria to fully grow (at 30° C. for yeast). […]

## CCCCCCCCCCCCOS(=O)(=O)[O-].[Na+] [SDS, Sodium Dodecyl Sulfate]
  effect on untreated area of lawn plate: hypermigration effect
